Reference: patent US20030013690A1, “Increasing phosphorus uptake from the gut of dairy cows by supplementing 1alpha-hydroxylated vitamin D compounds” (priority 2001, published 2003)

How the values were obtained:
Type in all cases: in vivo
[1] = system: lactating dairy cows; assay: Dairy cow efficacy trial: feed intake, fecal P excretion, P utilization
Description: (§1) Eight multiparous lactating dairy cows (about 150 days in milk at start of the experiment) were blocked into two groups according to milk yield. Cows in each block were assigned randomly to four different treatments. The experimental design was a 4×4 Latin Square. Each period was four weeks in length. The first three weeks were used as an adaptation period, and measurements were taken during the last week of each period.
(§2) The four treatments were:
(§3) 1) High P diet. Dietary P at 0.47% (DM basis)
(§4) 2) Diet 1 plus 1-α-OHD3 (75 μg/cow/day)
(§5) 3) Low P diet. Dietary P at 0.35% (DM basis)
(§6) 4) Diet 3 plus 1-α-OHD3 (75 μg/cow/day).
The diets (Table 1) were fed ad libitum as a total mixed ration once daily. The cows were housed in individual tie stalls. Daily feed offered and refused was recorded for individual cows. Feed refusals were restricted to 10% of intake on an as-fed basis. Daily samples of silage and refusals were composited weekly for chemical analysis. Samples of individual feed ingredients were collected once weekly. The dry matter content of feed ingredients was determined by oven drying at 60° C. for 48 hr. Diet formulations were adjusted weekly, if necessary, to account for changes in dry matter content of diet ingredients. All of the feed ingredients were analyzed for chemical composition. Alfalfa and corn silage were analyzed weekly for neutral detergent fiber (NDF), acid detergent fiber (ADF), and crude protein (CP). High moisture ear corn (HMEC), soybean meal (SBM), roasted soybean meal (RSB), and blood meal (BM) were composited every four weeks (one sample per period) and analyzed for CP.
Feed DM digestibility was determined using Yb as an external marker. A Yb solution, prepared by dissolving 2.24 g of YbCl3 (1 g of Yb) in 30 ml of water was sprayed onto 500 g of alfalfa silage (DM basis). The Yb-marked alfalfa silage was mixed into the total mixed ration to give 40 mg of Yb/kg of dietary DM. The total mixed ration labeled with Yb was fed for nine days. During the last two days of Yb feeding (last two days of each period), eight fecal grab samples were collected from each cow at 7 am, 12 noon, 6 pm, and 11 pm on the first day and at 9 am, 3 pm, 9 pm, and 5 am on the second day. Fecal samples were dried at 60° C. for 72 h and ground through a 2-mm Wiley mill screen. Fecal samples were dry-ashed in duplicate (Combs and Satter, 1992). During the last four days of each period, feed refusals for each cow were collected and composited into one sample per cow per period. These samples were dry-ashed in the same way as feces, and analyzed for Yb. Concentrations of Yb (ppm) in feed, feed refusals, and fecal samples were determined by direct current plasma spectroscopy [(Combs and Satter, 1992); Spectra Metrics, Inc., subsidiary of Beckman Instruments, Inc., Andover, Mass.]. The DM digestibility (percentage) for individual cows was calculated as follows: DM digestibility (%)=(1-concentration of Yb in DM consumed/average concentration of Yb in each cow's fecal samples)100. Digestibility of dietary P in different treatments was calculated using P input-output data.

[2] = system: lactating dairy cows; assay: Dairy cow efficacy trial: milk yield and milk composition
Description: as §1, §2, §3, §4, §5, §6
(§7) Cows were weighed two days in a row before the trial started and two days in a row when it finished. Daily milk weights were recorded. All cows were injected with bovine somatotropin (Posilac®). Blood samples were collected on the last day of weeks 1, 2, and 3 of each period. During week 4, blood samples were obtained on each of the last three days. Blood was obtained 5 hours after feeding from the coccygeal vein or artery in a gel and clot co-activator vacutainer. Samples were centrifuged the next day to separate the serum. Inorganic phosphorus and calcium analyses were performed on serum samples by Marshfield Laboratories, Marshfield, Wis.
(§8) During the last two days of each period, six urine samples were collected at 8 am, 4 pm, and 11 pm on the first day and 12 noon, 8 pm, and 6 am on the second day. Urine samples were then composited for phosphorus, calcium, and creatinine analysis. Creatinine was measured to enable an estimate of urine output. Milk samples were obtained during four days of each period. The milk sample was split; one-half was mixed with a preservative, and the other half was refrigerated without a preservative. The samples with preservative were analyzed for milk composition by Wisconsin Ag Source Milk Analysis Laboratory (Menomonie, Wis.), and the samples without preservative were composited according to milk yield and analyzed for mineral composition in the Soil and Plant Analysis Laboratory, Department of Soil Science, University of Wisconsin-Madison.

[3] = system: lactating dairy cows; assay: Dairy cow efficacy trial: P and Ca concentrations in urine
Description: as §1, §2, §3, §4, §5, §6, §8

[4] = system: lactating dairy cows; assay: Dairy cow efficacy trial: P and Ca concentrations in blood serum
Description: as §1, §2, §3, §4, §5, §6, §7

[5] = treatment 2: high P diet (0.47% P) plus 75 μg/cow/day
[6] = treatment 4: low P diet (0.35% P) plus 75 μg/cow/day
[7] = both the high- and low-P treatments, highly significant

## C=C1/C(=C\C=C2/CCC[C@]3(C)[C@@H]([C@H](C)CCCC(C)C)CC[C@@H]23)C[C@@H](O)C[C@@H]1O [1-α-OHD3, 1α-hydroxyvitamin D3]
[1]; 75 μg/cow/day
  Reduction in fecal P excretion due to supplementation: 14%
[1]; both the high- and low-P treatments, 75 μg/cow/day
  Reduction of phosphorus excretion in manure: about 10 g per day
[1]; daily inclusion of 75 μg in the cows' diets
  Effect on fecal P excretion: reduced
[1]; evidenced by decreased fecal P and increased serum P
  Effect on P uptake from the gut: increased
[1]; [5]
  Fecal DM P: 0.99%
  Fecal P: 71.3 g/day
  Milk and Fecal P: 109.5 g/day
[1]; [6]
  Fecal DM P: 0.77%
  Fecal P: 55.4 g/day
  Milk and Fecal P: 93.8 g/day
[2]; supplementation of 75 μg
  Effect on milk production: unaffected
[2]; [5]
  Milk yield: 36.9 kg/day
[2]; [6]
  Milk yield: 37.6 kg/day
[3]; 75 μg/cow/day
  Effect on calcium excretion via urine: increased
[3]; high-P treatment, at 5.15 mg P per dl of urine
  Urinary P as share of dietary P intake: about 2%
[3]; [5]
  Urine calcium: 12.03 mg/dL
  Urine phosphorus: 5.15 mg/dL
[3]; [6]
  Urine calcium: 15.46 mg/dL
  Urine phosphorus: 0.40 mg/dL
[4]; [7]
  Effect on concentration of Ca in blood serum: increase
  Effect on concentration of P in blood serum: increase
[4]; [5]
  Blood serum calcium: 10.32 mg/dL
  Blood serum phosphorus: 8.77 mg/dL
[4]; [6]
  Blood serum calcium: 10.14 mg/dL
  Blood serum phosphorus: 7.63 mg/dL
